{"source": "patent US20230406850A1", "about": "“CRYSTALLINE FORM OF HETEROCYCLIC COMPOUND, PREPARATION METHOD THEREFOR AND APPLICATION THEREOF” (WUHAN LL SCIENCE AND TECHNOLOGY DEVELOPMENT CO., LTD., priority 2020, published 2023)", "assay_type_in_all_cases": "physicochemical", "key": {"[1]": {"assay": "Dynamic vapor sorption (DVS) hygroscopicity", "experimental": "The solid was analyzed by DVS using IGA sorp dynamic vapor sorption instrument. • Temperature: 25° C. • Gas flow: 250 mL/min. • Scan cycle: 2. • Minimum test time: 30 min. • Maximum test time: 2 hours. • Waiting for balance: 98%."}, "[2]": {"assay": "Solid form change on dehydration, drying or ambient humidity (XRPD)", "details": "heating to dehydration, then ambient humidity", "description": "Combined with DSC and TGA pattern, it can be seen that the product is hydrate with about 0.34 water molecules."}, "[3]": {"assay": "Stability of crystalline form III slurried in DMSO/water mixed solvents", "details": "for The experimental results (crystalline form): slurried three days at room temperature"}, "[4]": {"assay": "Solubility in DMSO and DMSO/water mixed solvents"}, "[5]": {"assay": "Physical and chemical stability (stability boxes, XRPD and HPLC)", "details": "for Purity -7 days (peak area %) / XRPD: 7 days", "experimental": "About 10 mg of crystalline forms I, III and V were placed in the stability boxes at 40° C./75% RH (open) and 60° C. (covered) for seven days, and some samples were taken out for XRPD and HPLC tests at 0 and 7 days, respectively, to investigate their physical and chemical stability."}, "[6]": {"assay": "Mechanical stability test (grinding and pelleting)", "experimental": "The mechanical stability of crystalline forms I and III were investigated by grinding and pelleting. Grinding test method: the sample to be measured was put in a mortar and grinded for 2 minutes and 5 minutes respectively, then XRPD was test, and the changes of crystalline form and crystallinity were observed. Pelleting test method: the sample was placed in the die of tablet press, kept at 40 MPa for one minute, and then the crystalline form taken out to test XRPD."}, "[7]": {"assay": "Solubility in biological media SGF, FaSSIF and FeSSIF", "experimental": "Compared with other crystalline forms, crystalline forms I, III and V show good solid properties, so their solubility was tested respectively.\n10 mg of the sample was weighed, and then 2.0 mL of biological media buffer (i.e. the target concentration is 5 mg/mL) was added to form a suspension. The mixture was put in a constant temperature water bath shaker (37° C., 100 rpm), and sampled 500 μL at 0.5, 2 and 24 hours respectively. After filtration, the pH value and HPLC concentration of filtrate were tested respectively, and the solid sample obtained by filtration was tested by XRPD."}}, "data": [{"smiles": "COC(=O)N1CCO[C@@H](Cc2c(-c3c(F)cc(S(N)(=O)=O)cc3F)nc3cc(Cl)ccn23)C1", "note": "[Crystalline form III, methyl (S)-2-((7-chloro-2-(2,6-difluoro-4-sulfamoylphenyl)imidazo[1,2-a]pyridin-3-yl)methyl)morpholine-4-carboxylate]", "values": [{"measurement": "XRPD before and after the DVS test", "setting": "[1]", "value": "no obvious change in the XRPD"}, {"measurement": "DVS pattern, behaviour in words", "setting": "[1]; 25° C.", "value": "the water content changes little in a wide humidity range"}, {"measurement": "crystalline form after dehydration", "setting": "[2]", "value": "becomes crystalline form III again"}, {"measurement": "The experimental results (crystalline form)", "setting": "[3]; DMSO/Water 1/2 V/V", "value": "Crystalline form III"}, {"measurement": "The experimental results (crystalline form)", "setting": "[3]; DMSO/Water 1/4 V/V", "value": "Crystalline form III"}, {"measurement": "The experimental results (crystalline form)", "setting": "[3]; DMSO/Water 2/3 V/V", "value": "Crystalline form III"}, {"measurement": "water content of DMSO/water in which the form is stable without crystal transformation", "setting": "[3]; room temperature", "value": "higher than 60 % (volume percentage)"}, {"measurement": "Solubility", "setting": "[4]; aqueous with cosolvent or surfactant or cyclodextrin, DMSO/Water 1:2, RT", "value": "~500", "unit": "µg/mL"}, {"measurement": "Solubility", "setting": "[4]; aqueous with cosolvent or surfactant or cyclodextrin, DMSO/Water 1:3, RT", "value": "~280", "unit": "µg/mL"}, {"measurement": "Solubility", "setting": "[4]; aqueous with cosolvent or surfactant or cyclodextrin, DMSO/Water 1:4, RT", "value": "< 250", "unit": "µg/mL"}, {"measurement": "Solubility", "setting": "[4]; organic solvent or mixture, DMSO, RT", "value": "> 200000", "unit": "µg/mL"}, {"measurement": "Initial purity (Peak area %)", "setting": "[5]; 0 days", "value": 99.34, "unit": "peak area %"}, {"measurement": "Purity -7 days (peak area %)", "setting": "[5]; 40° C./75% RH (open)", "value": 99.35, "unit": "peak area %"}, {"measurement": "XRPD", "setting": "[5]; 40° C./75% RH (open)", "value": "Constant"}, {"measurement": "stability conclusion in words", "setting": "[5]; 40° C./75% RH and 60° C., seven days", "value": "good physical and chemical stability"}, {"measurement": "Purity -7 days (peak area %)", "setting": "[5]; 60° C. (covered)", "value": 99.35, "unit": "peak area %"}, {"measurement": "XRPD", "setting": "[5]; 60° C. (covered)", "value": "Constant"}, {"measurement": "crystallinity after pelleting", "setting": "[6]; 40 MPa, 1 min", "value": "decreases obviously"}, {"measurement": "crystalline form and crystallinity after grinding", "setting": "[6]; grinding 2 min and 5 min", "value": "no obvious change in crystalline form and crystallinity"}, {"measurement": "XRPD of remaining solid", "setting": "[7]; FaSSIF, 0.5 h", "value": "Unchanged"}, {"measurement": "pH of filtrate", "setting": "[7]; FaSSIF, 0.5 h", "value": 6.4}, {"measurement": "Solubility", "setting": "[7]; FaSSIF, 0.5 h, 37° C.", "value": 0.023, "unit": "mg/mL"}, {"measurement": "XRPD of remaining solid", "setting": "[7]; FaSSIF, 2 h", "value": "Unchanged"}, {"measurement": "pH of filtrate", "setting": "[7]; FaSSIF, 2 h", "value": 6.4}, {"measurement": "Solubility", "setting": "[7]; FaSSIF, 2 h, 37° C.", "value": 0.025, "unit": "mg/mL"}, {"measurement": "XRPD of remaining solid", "setting": "[7]; FaSSIF, 24 h", "value": "Unchanged"}, {"measurement": "pH of filtrate", "setting": "[7]; FaSSIF, 24 h", "value": 6.4}, {"measurement": "Solubility", "setting": "[7]; FaSSIF, 24 h, 37° C.", "value": 0.033, "unit": "mg/mL"}, {"measurement": "XRPD of remaining solid", "setting": "[7]; FeSSIF, 0.5 h", "value": "Unchanged"}, {"measurement": "pH of filtrate", "setting": "[7]; FeSSIF, 0.5 h", "value": 4.9}, {"measurement": "Solubility", "setting": "[7]; FeSSIF, 0.5 h, 37° C.", "value": 0.074, "unit": "mg/mL"}, {"measurement": "XRPD of remaining solid", "setting": "[7]; FeSSIF, 2 h", "value": "Unchanged"}, {"measurement": "pH of filtrate", "setting": "[7]; FeSSIF, 2 h", "value": 4.8}, {"measurement": "Solubility", "setting": "[7]; FeSSIF, 2 h, 37° C.", "value": 0.088, "unit": "mg/mL"}, {"measurement": "XRPD of remaining solid", "setting": "[7]; FeSSIF, 24 h", "value": "Unchanged"}, {"measurement": "pH of filtrate", "setting": "[7]; FeSSIF, 24 h", "value": 4.9}, {"measurement": "Solubility", "setting": "[7]; FeSSIF, 24 h, 37° C.", "value": 0.120, "unit": "mg/mL"}, {"measurement": "solubility at 0.5 h", "setting": "[7]; SGF, 37 °C, simulated gastric fluid, thermodynamic from solid, SGF, 0.5 h, 37° C., read-out: Solubility (visual observation)", "value": "> 5000", "unit": "µg/mL"}, {"measurement": "pH of filtrate", "setting": "[7]; SGF, 0.5 h", "value": 1.0}]}]}
